Test results from article PMC10283047, “Targeting β-catenin and PD-L1 simultaneously by a racemic supramolecular peptide for the potent immunotherapy of hepatocellular carcinoma” (Theranostics, 2023).

System: RAW264.7 macrophagocytes
Protocol: Besides, we contrastively explored cellular uptakes of BBI, PDP, sBBI and sBBI&PDP into a macrophage cell line RAW264.7 and HCC cell line Hepa1-6. The fluorescence was derived from fluorescein isothiocyanate (FITC), FITC was linked to the amino-terminal of sBBI, and the sBBI with FITC was then combined with PDP to form FITC-sBBI&PDP.
Hepa1-6 cells are seeded in 6-well plates at an appropriate density, approximately 200,000 cells per
well. After cell attachment, 1 mL of drug was labeled with 10 µL of FITC (100:1). Keep away from
light, and co-incubate the drug with the cells for 10 minutes. Digest cells according to normal
procedures. After centrifugation, wash 2-3 times with PBS and resuspend in 150-200 µL PBS for
FACS detection. FITC was incubated with drugs for 30 minutes. Plate with 6 cm confocal laser
dishes, 100,000 cells per well. After cell attachment, FITC-labeled drug was added. Drugs were co-
cultured with cells for 6 h. Cells were washed twice with PBS and cellular uptake observed under a
confocal laser fluorescence microscope.

| Substance | Cellular uptake |
| --- | --- |
| KFERQKILDSQEQLEHRERSLQT -(Hle)-RDIQRML-(2-Nal)-PC [BBI] | neither BBI nor PDP peptide showed cellular uptakes |
| CHEHEKFEQR-(PEG3)-nyskptdrqyhfrr [PDP] | neither BBI nor PDP peptide showed cellular uptakes |
